From patent publication US20240316061A1, “BET INHIBITORS FOR TREATING PAB1 DEFICIENT CANCER” (INSTITUT CURIE, priority 2021, published 2024)

How the values were obtained:
Type in all cases: cell-based
[1] = test system: isogenic HAP1 cells (Wild-type or BAP1 knockout); assay: Proliferation of isogenic HAP1 cells exposed to BI894999, CellTiter-Glo; details: increasing concentration for 7 days; FIG. 3
Method: Proliferation of isogenic HAP1 cells (Wild-type or BAP1 knockout) exposed to increasing concentration of the BET inhibitor BI894999 for 7 days. Proliferation was measured using the CellTiter-Glo Luminescent Cell Viability assay.

[2] = test system: human BAP1 cells either wild type or BAP1 knockout; assay: Proliferation of BAP1 wild type or BAP1 knockout cells exposed to OTX015, Cell Titer Glow; details: increasing dose for 12 days, compound renewed after 6 days; FIG. 1
Method: Proliferation of human BAP1 cells either wild type or BAP1 knockout (generated by genome editing) exposed to increasing dose of OTX015 for 12 days Cells were grown in IMDM and compound was renewed after 6 days. Cell viability was measured using Cell Titer Glow.

[3] = test system: uveal melanoma derived cells wild type for BAP1 (MP41 and MM66) or BAP1 inactivated (MP46 and MP38); assay: Proliferation of uveal melanoma derived cells exposed to OTX015, MTT assay; details: increasing concentration for 12 days; MP46, MP38 vs MP41, MM66; FIG. 2
Method: Proliferation of uveal melanoma derived cells either wild type for BAP1 (MP41 and MM66) or for which BAP1 is inactivated (MP46 and MP38). Cells were exposed to increasing concentration of OTX015 for 12 days, Proliferation was measured using the MTT assay.

Row | SMILES | Dose response (proliferation) in BAP1 knockout HAP1 cells compared to HAP1 cells expressing BAP1 [1] | Dose response (proliferation) of BAP1 KO cells compared to BAP1 WT cells [2] | Dose response (proliferation) in BAP1 mutated UM derived cells compared to UM cells expressing BAP1 [3]
1 | CNc1nc(-c2nc3ccc(N4CCN(C)CC4)cc3n2Cc2ccccc2)cn2c(C)nnc12 [BI894999] | enhanced dose response |  | 
2 | Cc1sc2c(c1C)C(c1ccc(Cl)cc1)=N[C@@H](CC(=O)Nc1ccc(O)cc1)c1nnc(C)n1-2 [OTX015] |  | highest dose response | enhanced dose response
